From patent publication US20110064680A1, “NATURALLY DERIVED WATERPROOFING AGENTS FOR AQUEOUS-BASED PERSONAL CARE PRODUCTS” (Pinova, Inc., priority 2009, published 2011)

Assay: Solubility of solid sunscreen actives in the hydrogenated wood resins
Type: physicochemical
Conditions: solvent: hydrogenated wood resins
Description: During the making of the sunscreens, it was observed that the systems containing the hydrogenated wood resins more easily solubilzed the solid sunscreens (Oxybenzone and Avobenzone). […]

solubility of these actives in the hydrogenated wood resins	Structure (SMILES)
13%	COc1ccc(C(=O)CC(=O)c2ccc(C(C)(C)C)cc2)cc1 [Avobenzone]
24%	COc1ccc(C(=O)c2ccccc2)c(O)c1 [Oxybenzone]
